# Measured values from patent US9139557B2, “Carboxamide compounds and their use as calpain inhibitors” (Abbott GmbH & Co. KG, priority 2006, dated 2015).
# Target: T1, cathepsin S (Homo sapiens, UniProt P25774)
# T1 construct: purchased Calbiochem 219343; host or cells: E. coli
# Assay: Cathepsin S enzyme inhibition in vitro (kinetic fluorescence assay)
# Format: biochemical
# Details: Ki(cathepsin S)/Ki(calpain) ratio
# Protocol: Testing for blockade of the corresponding enzymic activities was carried out by means of kinetic fluorescence assays (excitation 390 nm, emission 460 nm).
# Apparent Ki values were calculated from the experimentally determined IC50 values by the Cheng-Prussoff relation assuming a reversible competitive enzyme inhibition. The Km values of the substrates used under the assay conditions indicated above were: 90 μM (Z-Phe-Arg-AMC, cathepsin B), 10 μM (Z-Gly-Pro-Arg-AMC, cathepsin K), 2 μM (Z-Phe-Arg-AMC, cathepsin L), and 30 μM (Z-Val-Val-Arg-AMC, cathepsin S).
# The indicated Ki values are averages of the inhibition constants calculated on the basis of 2 to 4 independent dose-effect plots.
# • 1. Calpain I: • 20 nM calpain-I—isolated from human erythrocytes (Calbiochem #208713), 100 μM Suc-Leu-Tyr-AMC (Bachem #1-1355) as substrate in buffer with 62 mM imidazole, 0.3 mM CaCl2, 0.10% CHAPS, 0.05% BSA, 1 mM DTT at pH 7.3 and room temperature. • 2. Cathepsin B: • 0.25 nM cathepsin B—isolated from human liver (Calbiochem #219362), 100 μM Z-Phe-Arg-AMC (Bachem #1-1160) as substrate 50 mM MES, 2 mM EDTA, 0.05% Brij 35, 2.5 mM L-cysteine, pH 6.0, room temperature. • 3. Cathepsin K: • 3 nM cathepsin K—activated from recombinant human procathepsin K from E. coli (Calbiochem #342001), 10 μM Z-Gly-Pro-Arg-AMC (Biomol #P-142) as substrate in 50 mM MES, 2 mM EDTA, 0.05% Brij 35, 2.5 mM L-cysteine, pH 6.0, room temperature. • 4. Cathepsin L: • 1 nM cathepsin L—isolated from human liver (Calbiochem #219402), 2 μM Z-Phe-Arg-AMC (Bachem #1-1160) as substrate in 50 mM MES, 2 mM EDTA, 0.05% Brij 35, 2.5 mM L-cysteine, pH 6.0, room temperature. • 5. Cathepsin S: • 0.5 nM recombinant human cathepsin S from E. coli (Calbiochem #219343), 20 μM Z-Val-Val-Arg-AMC (Bachem #1-1540) as substrate in 50 mM MES, 2 mM EDTA, 0.05% Brij 35, 2.5 mM L-cysteine, pH 6.0, room temperature.
# T1 sequence (P25774 115-331): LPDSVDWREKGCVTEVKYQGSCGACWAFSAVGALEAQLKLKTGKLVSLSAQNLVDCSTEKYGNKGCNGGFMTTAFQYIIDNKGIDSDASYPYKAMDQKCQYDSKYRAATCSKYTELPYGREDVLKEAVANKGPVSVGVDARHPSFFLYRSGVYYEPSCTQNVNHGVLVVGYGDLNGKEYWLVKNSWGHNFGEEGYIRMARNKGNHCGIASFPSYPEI
row,Structure (SMILES),Sel cat. S
1,"CCCCC(NC(=O)c1cccnc1-n1ccc(-c2ccccc2)n1)C(=O)C(N)=O (stereo not drawn) [Example 6, N-{1-[Amino(oxo)acetyl]pentyl}-2-(3-phenyl-1H-pyrazol-1-yl)nicotinamide]",+ (+ means 50≦Ki(cathepsin S)/Ki(calpain)<100)
2,"NC(=O)C(=O)C(Cc1ccccc1)NC(=O)c1cccnc1-n1cnc(-c2ccc(N3CCOCC3)cc2)c1 (stereo not drawn) [Example 14, N-(3-Amino-1-benzyl-2,3-dioxopropyl)-2-[4-(4-morpholin-4-ylphenyl)-1H-imidazol-1-yl]nicotinamide]",++ (++ means a Ki(cathepsin S)/Ki(calpain) ratio of ≧100)
3,"CCN(CC)c1ccc(-c2ccn(-c3ncccc3C(=O)NC(Cc3ccccc3)C(=O)C(N)=O)n2)cc1 (stereo not drawn) [Example 42, N-(3-Amino-1-benzyl-2,3-dioxopropyl)-2-{3-[4-(diethylamino)phenyl]-1H-pyrazol-1-yl}nicotinamide]",++ (++ means a Ki(cathepsin S)/Ki(calpain) ratio of ≧100)
4,"CCN(CC)Cc1ccc(-c2ccn(-c3ncccc3C(=O)NC(Cc3ccccc3)C(=O)C(N)=O)n2)cc1.Cl (stereo not drawn) [Example 43, N-(3-Amino-1-benzyl-2,3-dioxopropyl)-2-(3-{4-[(diethylamino)methyl]phenyl}-1H-pyrazol-1-yl)nicotinamide hydrochloride]",++ (++ means a Ki(cathepsin S)/Ki(calpain) ratio of ≧100)
5,"CCCCC(NC(=O)c1cccnc1-n1ccc(-c2ccc(CN(CC)CC)cc2)n1)C(=O)C(N)=O (stereo not drawn) [Example 44, N-{1-[Amino(oxo)acetyl]pentyl}-2-(3-{4-[(diethylamino)methyl]phenyl}-1H-pyrazol-1-yl)nicotinamide]",+ (+ means 50≦Ki(cathepsin S)/Ki(calpain)<100)
6,"CCCCC(NC(=O)c1cccnc1-n1ccc(-c2ccc(CN3CCOCC3)cc2)n1)C(=O)C(N)=O (stereo not drawn) [Example 45, N-{1-[Amino(oxo)acetyl]pentyl}-2-{3-[4-(morpholin-4-ylmethyl)phenyl]-1H-pyrazol-1-yl}nicotinamide]",+ (+ means 50≦Ki(cathepsin S)/Ki(calpain)<100)
7,"NC(=O)C(=O)C(Cc1ccccc1)NC(=O)c1cccnc1-n1ccc(-c2ccc(CN3CCOCC3)cc2)n1 (stereo not drawn) [Example 46, N-(3-Amino-1-benzyl-2,3-dioxopropyl)-2-{3-[4-(morpholin-4-ylmethyl)phenyl]-1H-pyrazol-1-yl}nicotinamide]",++ (++ means a Ki(cathepsin S)/Ki(calpain) ratio of ≧100)
8,"CCCCC(NC(=O)c1cccnc1-n1ccc(-c2ccc(N(CC)CC)cc2)n1)C(=O)C(N)=O (stereo not drawn) [Example 47, N-{1-[Amino(oxo)acetyl]pentyl}-2-{3-[4-(diethylamino)phenyl]-1H-pyrazol-1-yl}nicotinamide]",++ (++ means a Ki(cathepsin S)/Ki(calpain) ratio of ≧100)
9,"Cl.NC(=O)C(=O)C(Cc1ccccc1)NC(=O)c1cccnc1-n1ccc(-c2cccc(CN3CCOCC3)c2)n1 (stereo not drawn) [Example 52, N-(3-Amino-1-benzyl-2,3-dioxopropyl)-2-{3-[3-(morpholin-4-ylmethyl)phenyl]-1H-pyrazol-1-yl}nicotinamide hydrochloride]",++ (++ means a Ki(cathepsin S)/Ki(calpain) ratio of ≧100)
10,"NC(=O)C(=O)C(Cc1ccccc1)NC(=O)c1cccnc1-n1ccc(-c2ccncc2)n1 (stereo not drawn) [Example 65, N-(3-Amino-1-benzyl-2,3-dioxopropyl)-2-(3-pyridin-4-yl-1H-pyrazol-1-yl)nicotinamide]",++ (++ means a Ki(cathepsin S)/Ki(calpain) ratio of ≧100)
11,"NC(=O)C(=O)C(Cc1ccccc1)NC(=O)c1cccnc1-n1ccc(-c2ccc(-n3ccnc3)cc2)n1 (stereo not drawn) [Example 101, N-[3-Amino-2,3-dioxo-1-(phenylmethyl)propyl]-2-{3-[4-(1H-imidazol-1-yl)phenyl]-1H-pyrazol-1-yl}pyridine-3-carboxamide]",++ (++ means a Ki(cathepsin S)/Ki(calpain) ratio of ≧100)
12,"NC(=O)C(=O)C(Cc1ccccc1)NC(=O)c1cccnc1-n1cc(-c2ccccc2F)cn1 (stereo not drawn) [Example 104, N-[3-Amino-2,3-dioxo-1-(phenylmethyl)propyl]-2-[4-(2-fluorophenyl)-1H-pyrazol-1-yl]pyridine-3-carboxamide]",+ (+ means 50≦Ki(cathepsin S)/Ki(calpain)<100)
